These are literature values, as cited in US9375001B1, “Granular fly bait” (Wellmark International, priority 2012, dated 2016).

Read-outs that look alike come from different tables or passages of the source.

For `OC[C@H]1O[C@@](CO)(O[C@H]2O[C@H](CO)[C@@H](O)[C@H](O)[C@H]2O)[C@@H](O)[C@@H]1O` [Sucrose], the “Solubility of Sucrose in Water, Sucrose/water” value was 2.59 wt/wt (50 ° C.); 2.73 wt/wt (55 ° C.); 2.89 wt/wt (60 ° C.); 3.06 wt/wt (65 ° C.); 3.25 wt/wt (70 ° C.); 3.46 wt/wt (75 ° C.). Further, the “Solubility of Sucrose in Water, Sucrose/water” value is on record as 3.69 wt/wt (80 ° C.), 3.94 wt/wt (85 ° C.) and 4.20 wt/wt (90 ° C.).
